Test results reported in PMC8198792, “Prediction of Anticancer Peptides with High Efficacy and Low Toxicity by Hybrid Model Based on 3D Structure of Peptides” (International Journal of Molecular Sciences, 2021).
pIC50: −log10 of the molar value. Bridge positions count the residues as written; N and C are the ends. Peptide text beside a SMILES is read from it.

Assays:
[1] = test system: 2% sheep red blood cells (SRBC); experiment: Hemolysis assay; type: cell-based; conditions: Triton X-100 0.1% (w/v), 2% SRBC, 37 °C, 1 h, absorbance 540 nm; printed once per peptide line
Description: The 2% sheep red blood cells (SRBC) were purchased from Nanjing Senbeijia Biological Technology Co., Ltd (Nangjing, China). A total of 4 mL of 2% SRBC was taken, rinsed twice with 4 mL of PBS by centrifugation for 5 min at 3000 rpm and the precipitates were resuspended in 4 mL of PBS. We added 100 μL of 2% SRBC to each well of the 96-well plate and then added 100 μL peptide solutions of different concentrations (2, 4, 8, 16, 32, 64, 128 and 256 μM) in triplicate at 37 °C for 1 h. 100 μL of PBS buffer and 100 uL of Triton X-100 0.1% (w/v) were mixed with SRBC as negative and positive controls, respectively. All samples were centrifuged at 3000 rpm for 5 min, 100 μL supernatant was collected and transferred to a new 96-well plate, and its absorbance was measured at 540 nm. The calculation formula of hemolysis rate is as follows. (5) % Hemolysis=absorbancesample-absorbancenegative/absorbancepositive-absorbancenegative×100

[2] = test system: cervical cancer cell line (HeLa); type: cell-based, human; conditions: 24 h
From the text: (§1) Five peptides were randomly selected from the candidate ACPs and synthesized by Changzhou Kanglong Biotech Ltd (Changzhou, China). using 9-fuorenylmethoxy carbonyl (FMOC) solid phase synthesis technology. The synthetic peptide was identified by mass spectrometry (MS), and the purity >95% by high performance liquid chromatography (HPLC). Human breast cancer cell line (MCF7), lung cancer cell line (A549), cervical cancer cell line (HeLa), colorectal adenocarcinoma cell line (LoVo) and human embryonic kidney cells (293T) were preserved in our laboratory. At 37 °C under 5/95% CO2/air condition, all cell lines were cultured in Dulbecco’s modified Eagle medium (DMEM) supplemented with 10% (v/v) fetal bovine serum (FBS, Gibco, Carlsbad, CA, USA) and 1% (v/v) penicillin/streptomycin (Sangon Biotech, Shanghai, China).
(§2) Human tumor cell lines MCF7, A549, HeLa and LoVo were used as experimental materials to detect the anticancer activity of peptides by MTT assay. In addition, human embryonic kidney cells 293T were also included in the experiment to examine the safety of the peptide against non-cancerous cells. […] Untreated cells as negative control group incubated with corresponding medium for 24 h. Subsequently, 10 uL, 5 mg/mL MTT (Sangon Biotech, Shanghai, China) solution was added to each well and incubated for 4 h at 37 °C. After the medium was discarded, 150 μL DMSO was added to each well for 10 min to dissolve formazan crystals. Absorbance was measured at 570 and 630 nm using a multiwall plate reader and the inhibition rate was expressed as the mean ± standard deviation (SD) of the triplicate data.

[3] = test system: colorectal adenocarcinoma cell line (LoVo); type: cell-based, human; conditions: 24 h
From the text: as §1, §2

[4] = test system: lung cancer cell line (A549); type: cell-based, human; conditions: for pIC50 / killing effects on lung cancer cell A549 (in words): 24 h; for selective killing effect on lung cancer A549 cells relative to 293T cells (in words): A549 versus 293T, MTT IC50; for killing effects on lung cancer cell A549 (in words): MTT, anticancer activity when IC50 less than 50 μM
From the text: as §1, §2

[5] = test system: Human breast cancer cell line (MCF7); type: cell-based; conditions: 24 h
From the text: as §1, §2

[6] = test system: human embryonic kidney cells (293T); experiment: MTT assay on non-cancerous cells, 293T; type: cell-based; conditions: 24 h; for toxicity to 293T cells (in words): low toxicity when the IC50 value exceeded 50 μM, MTT
From the text: as §1, §2

Triton X-100 [reference compound]
Hemolytic effect on 2% sheep erythrocytes, Positive Control (Triton X-100 (0.1%)) [1]: + (The “+” symbol indicates that the hemolysis rate exceeds 10% when peptides concentration reaches 100 μM)

CC(C)C[C@H](NC(=O)CN)C(=O)N[C@@H](Cc1ccccc1)C(=O)N[C@@H](CC(=O)O)C(=O)N[C@H](C(=O)N[C@H](C(=O)N[C@@H](CCCCN)C(=O)NCC(=O)N[C@H](C(=O)N[C@@H](CC(C)C)C(=O)N[C@@H](CCCCN)C(=O)NCC(=O)N[C@@H](C)C(=O)NCC(=O)N[C@@H](CCCCN)C(=O)N[C@@H](CC(N)=O)C(=O)N[C@H](C(=O)N[C@@H](C)C(=O)NCC(=O)N[C@@H](CO)C(=O)N[C@@H](CC(C)C)C(=O)N[C@@H](CC(C)C)C(=O)N[C@@H](CCC(=O)O)C(=O)N[C@@H](CCC(N)=O)C(=O)N[C@@H](CC(C)C)C(=O)N[C@@H](CCCCN)C(=O)N[C@H]1CSSC[C@@H](C(=O)O)NC(=O)CNC(=O)CNC(=O)[C@H](CO)NC(=O)[C@H](CC(C)C)NC(=O)[C@H](CCCCN)NC1=O)C(C)C)C(C)C)C(C)C)C(C)C [Brevinin-2DYb] (H-GLFDVVKGVLKGAGKNVAGSLLEQLKCKLSGGC-OH; disulfide 27-33; N-terminus and C-terminus assumed)
pIC50 [2]: 4.63
pIC50 [3]: 4.46
pIC50 [4]: 4.62
selective killing effect on lung cancer A549 cells relative to 293T cells (in words) [4]: selective killing effect
killing effects on lung cancer cell A549 (in words) [4]: effective killing effects
pIC50 [5]: 4.42
pIC50 [6]: 4.30
toxicity to 293T cells (in words) [6]: low toxicity

CC[C@H](C)[C@@H]1NC(=O)[C@H](CCCCN)NC(=O)[C@@H](NC(=O)[C@H](CCCCN)NC(=O)[C@H](CC(C)C)NC(=O)CNC(=O)[C@H](CCC(=O)O)NC(=O)[C@H](CC(C)C)NC(=O)[C@H](CCCCN)NC(=O)CNC(=O)[C@H](C)NC(=O)[C@@H](NC(=O)[C@H](CC(=O)O)NC(=O)[C@H](CCCCN)NC(=O)[C@H](C)NC(=O)[C@H](C)NC(=O)CNC(=O)[C@H](CCCCN)NC(=O)[C@H](CC(C)C)NC(=O)[C@@H](NC(=O)[C@H](CC(=O)O)NC(=O)[C@H](CC(C)C)NC(=O)[C@H](Cc2ccccc2)NC(=O)[C@H](CC(C)C)NC(=O)CN)[C@@H](C)O)C(C)C)CSSC[C@@H](C(=O)N[C@@H](CCCCN)C(=O)N[C@@H](CC(C)C)C(=O)N2CCC[C@H]2C(=O)O)NC(=O)CNC(=O)[C@H]([C@@H](C)O)NC1=O [RANATUERIN2] (H-GLFLDTLKGAAKDVAGKLEGLKCKITGCKLP-OH; disulfide 23-28; N-terminus and C-terminus assumed)
pIC50 [2]: < 3.89
pIC50 [4]: < 3.89
pIC50 [5]: < 3.89
pIC50 [6]: < 3.89
toxicity to 293T cells (in words) [6]: low toxicity

CC[C@H](C)[C@H](NC(=O)CN)C(=O)N[C@@H](CC(C)C)C(=O)N[C@@H](CO)C(=O)N[C@@H](CO)C(=O)N[C@H](C(=O)N[C@@H](CCCCN)C(=O)NCC(=O)N[C@H](C(=O)N[C@@H](C)C(=O)N[C@@H](CCCCN)C(=O)NCC(=O)N[C@H](C(=O)N[C@@H](C)C(=O)N[C@@H](CCCCN)C(=O)N[C@@H](CC(N)=O)C(=O)N[C@H](C(=O)N[C@@H](C)C(=O)N[C@@H](C)C(=O)N[C@@H](CCC(N)=O)C(=O)N[C@@H](CC(C)C)C(=O)N[C@@H](CC(C)C)C(=O)N[C@@H](CC(=O)O)C(=O)N[C@H](C(=O)N[C@@H](CC(C)C)C(=O)N[C@@H](CCCCN)C(=O)N[C@H]1CSSC[C@@H](C(=O)O)NC(=O)CNC(=O)[C@H]([C@@H](C)O)NC(=O)[C@H]([C@@H](C)CC)NC(=O)[C@H](CCCCN)NC1=O)[C@@H](C)O)C(C)C)C(C)C)C(C)C)[C@@H](C)CC [RANATUERIN-2Lb] (H-GILSSIKGVAKGVAKNVAAQLLDTLKCKITGC-OH; disulfide 27-32; N-terminus and C-terminus assumed)
pIC50 [2]: 4.43
pIC50 [3]: 4.22
pIC50 [4]: 4.81
selective killing effect on lung cancer A549 cells relative to 293T cells (in words) [4]: selective killing effect
killing effects on lung cancer cell A549 (in words) [4]: effective killing effects
pIC50 [5]: 4.34
pIC50 [6]: 4.20
toxicity to 293T cells (in words) [6]: low toxicity

CC[C@H](C)[C@H](NC(=O)CN)C(=O)N[C@@H](Cc1ccccc1)C(=O)N[C@@H](CC(=O)O)C(=O)N[C@H](C(=O)N[C@H](C(=O)N[C@@H](CCCCN)C(=O)NCC(=O)N[C@H](C(=O)N[C@@H](CC(C)C)C(=O)N[C@@H](CCCCN)C(=O)NCC(=O)N[C@H](C(=O)NCC(=O)N[C@@H](CCCCN)C(=O)N[C@@H](CC(N)=O)C(=O)N[C@H](C(=O)N[C@@H](C)C(=O)NCC(=O)N[C@@H](CO)C(=O)N[C@@H](CC(C)C)C(=O)N[C@@H](CC(C)C)C(=O)N[C@@H](CCC(=O)O)C(=O)N[C@@H](CCC(N)=O)C(=O)N[C@@H](CC(C)C)C(=O)N[C@@H](CCCCN)C(=O)N[C@H]1CSSC[C@@H](C(=O)O)NC(=O)CNC(=O)CNC(=O)[C@H](CO)NC(=O)[C@H](CC(C)C)NC(=O)[C@H](CCCCN)NC1=O)C(C)C)C(C)C)C(C)C)C(C)C)C(C)C [Brevinin-2DYd] (H-GIFDVVKGVLKGVGKNVAGSLLEQLKCKLSGGC-OH; disulfide 27-33; N-terminus and C-terminus assumed)
pIC50 [2]: 4.71
pIC50 [3]: 5.09
pIC50 [4]: 5.53
killing effects on lung cancer cell A549 (in words) [4]: effective killing effects
pIC50 [5]: 4.59
pIC50 [6]: 5.23
toxicity to 293T cells (in words) [6]: highest toxicity
